Experimental data as given in patent publication US10793566B2, “Bruton's tyrosine kinase inhibitors” (Zibo Biopolar Changsheng Pharmaceutical Co. Ltd., priority 2016, dated 2020).

Tests used:
[1] = biological target: LYN (Homo sapiens (Human), UniProt P07948); assay: LYN kinase assay (HTRF); type: biochemical; conditions: [ATP]=20 μM, LYN=0.12 nM
Description: Btk Kinase Assay and Other Kinases Assay Btk kinase activity was determined using a homogenous time resolved fluorescence (HTRF) methodology. Measurements were performed in a reaction volume of 15 μL using 384-well assay plates. Kinase enzyme, inhibitor, ATP and 1 μM peptide substrate were incubated in a reaction buffer compose of Hepes50 mM (pH7.0), NaN3 0.02%, BSA 0.01%, Orthocanadate 0.1 mM. After one hour, the kinase reaction was quenched by the addition of E t-labeled antibody and XL-665 in 1×Detection buffer containing 60 mM EDTA (Cisbio), and the mixture was allowed to incubate for one hour. The HTRF signal was measured on a multimode plate reader (EnVision Multilabel Reader, Perkin Elmer) with an excitation wavelength (λEx) of 330 nm and detection wavelengths (λEm) of 615 and 665 nm. Activity was determined by the ratio of the fluorescence at 665 nm to that at 615 nm. For each compound, enzyme activity as measured at various concentrations of compound, Negative control reactions were performed in the absence of inhibitor in two replicates and eight no enzyme controls were used to determine baseline fluorescence levels. IC50s were obtained according to the equation: […] For LYN assay, [ATP]=20 μM, LYN=0.12 n M. For LCK assay, [ATP]=20 μM, LCK=0.2 nM. For BLK assay, [ATP]=20 μM, BLK=0.6 n M.

[2] = tested on: Ramos cells; assay: Calcium flux assay, anti-IgM stimulated Ramos cells; type: cell-based; conditions: Homo sapiens, IgM-induced calcium influx, read-out: Ramos Ca Flux
Description: Calcium flux fluorescence-based assays were performed in aFDSS7000EX (Hamamatsu Photonics) fluorometric imaging plate reader according to manufacturer instructions. Compounds to be assayed were dissolved in DMSO, diluted to appropriate concentrations in Ca^2+ buffer ranging from 0 to 10 μM (at a dilution factor of 0.1), added 5 μl (6 X) to each well (the final DMSO concentration was 0.1% in each well). Then 12.5 μL 2× dye loading solution (Fluo-4 NW Calcium Assay Kits, Invitrogen) was added per well of a 384-well plate. Afterwards, actively growing Ramos cells (ATCC) in RPM1640 medium supplemented with 10% FBS (Invitrogen) were washed and re-plated in assay buffer (from Fluo-4 NW Calcium Assay Kits, Invitrogen) to approximately 6.4×10^6/ml (80000 cells/12.5 μL in 384-well plates). The plates were incubated at 37° C. for 30 minutes, then at room temperature for an additional 30 minutes. The plates were now ready to be used in an experiment. Immediately after the transfer and a 10-s recording of baseline fluorescence, the compound treated cells were stimulated with a goat anti-human IgM antibody ([…]; Jackson Immuno Research) and read in a FDSS for 240 seconds. Difference between the signal and that at baseline, designated adjusted relative fluorescence unit, was calculated by using a custom Excel (Microsoft, Redmond, Wash.) template to determine IgM-induced calcium influx and its inhibition by compounds. The table below show the result.

[3] = biological target: T1, BTK (Homo sapiens (Human), UniProt Q06187); assay: Btk occupancy in cellular assays (PCI-33380 labeling); type: cell-based; conditions: Jeko-1 cells, 1.5 h pre-incubation, PCI-33380 probe
Description: Btk Occupancy in Cellular Assays
For PCI-33380 labeling of human B cells, 10^6 Jeko-1 cells were pre-incubated with compound for 1.5 h before labeling. Then cells were treated with PCI-33380 at 5 μM for 1 h. Washed, lysed in Ripa buffer containing sample reducing agent, and analyzed by SDS/PAGE and fluorescent gel scanning using a Typhoon scanner 9500 (GE Healthcare) (Ex, 532 nm; Em, 555 nm). The gel was then blotted and total Btk levels detected by standard Western blot with Btk antibody (CST).
Target sequence in this assay (Q06187 whole entry): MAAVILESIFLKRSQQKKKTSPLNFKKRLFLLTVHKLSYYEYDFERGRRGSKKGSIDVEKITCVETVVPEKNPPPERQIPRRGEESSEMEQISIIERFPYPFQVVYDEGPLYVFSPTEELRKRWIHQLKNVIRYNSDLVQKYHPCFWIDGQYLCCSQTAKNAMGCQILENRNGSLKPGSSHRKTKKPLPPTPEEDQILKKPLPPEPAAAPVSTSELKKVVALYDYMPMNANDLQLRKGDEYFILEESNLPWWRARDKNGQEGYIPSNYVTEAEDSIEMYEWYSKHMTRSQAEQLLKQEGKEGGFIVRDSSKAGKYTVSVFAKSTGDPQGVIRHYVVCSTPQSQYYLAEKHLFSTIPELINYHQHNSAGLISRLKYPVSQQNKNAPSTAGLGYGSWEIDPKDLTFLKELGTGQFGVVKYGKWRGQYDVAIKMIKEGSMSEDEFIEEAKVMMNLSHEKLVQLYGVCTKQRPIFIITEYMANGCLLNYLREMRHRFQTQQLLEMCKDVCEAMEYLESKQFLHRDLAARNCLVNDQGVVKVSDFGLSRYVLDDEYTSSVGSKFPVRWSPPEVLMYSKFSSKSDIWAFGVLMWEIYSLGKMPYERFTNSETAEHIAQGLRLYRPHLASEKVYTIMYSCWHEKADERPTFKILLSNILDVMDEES

[4] = biological target: Btk (Mus musculus (Mouse), UniProt P35991); assay: Btk occupancy in vivo (PBMCs/splenocytes, PCI-33380 labeling); conditions: Babc/L mice, after 4 hours
Description: For analysis of Btk occupancy in Babc/L mice following oral dosing of compounds after 4 hours. Isolating peripheral blood mononuclear cells (PBMCs) with mouse peripheral blood separation kit (Hao Yang Biological Manufacture CO., LTD, Tianjin) were collected from Babc/L mice (1 ml blood from two mice). Spleens were processed to splenocytes followed by 5 min incubation in red blood cell lysing buffer (from mouse peripheral blood separation kit). PBMCs or splenocytes were then PCI-33380-labeled and lysates analyzed by fluorescent gel scanning as described in cellular assays.

[5] = biological target: T1, BTK; assay: Btk kinase assay (HTRF); type: biochemical; conditions: [ATP]=80 μM, BTK=3.4 nM; read-out: BTK Inhibition
Description: Btk Kinase Assay and Other Kinases Assay Btk kinase activity was determined using a homogenous time resolved fluorescence (HTRF) methodology. Measurements were performed in a reaction volume of 15 μL using 384-well assay plates. […] Activity was determined by the ratio of the fluorescence at 665 nm to that at 615 nm. For each compound, enzyme activity as measured at various concentrations of compound, Negative control reactions were performed in the absence of inhibitor in two replicates and eight no enzyme controls were used to determine baseline fluorescence levels.
Target sequence in this assay (Q06187 whole entry, species assumed): as the sequence (Q06187 whole entry) above

Chain of Btk (P35991 whole entry): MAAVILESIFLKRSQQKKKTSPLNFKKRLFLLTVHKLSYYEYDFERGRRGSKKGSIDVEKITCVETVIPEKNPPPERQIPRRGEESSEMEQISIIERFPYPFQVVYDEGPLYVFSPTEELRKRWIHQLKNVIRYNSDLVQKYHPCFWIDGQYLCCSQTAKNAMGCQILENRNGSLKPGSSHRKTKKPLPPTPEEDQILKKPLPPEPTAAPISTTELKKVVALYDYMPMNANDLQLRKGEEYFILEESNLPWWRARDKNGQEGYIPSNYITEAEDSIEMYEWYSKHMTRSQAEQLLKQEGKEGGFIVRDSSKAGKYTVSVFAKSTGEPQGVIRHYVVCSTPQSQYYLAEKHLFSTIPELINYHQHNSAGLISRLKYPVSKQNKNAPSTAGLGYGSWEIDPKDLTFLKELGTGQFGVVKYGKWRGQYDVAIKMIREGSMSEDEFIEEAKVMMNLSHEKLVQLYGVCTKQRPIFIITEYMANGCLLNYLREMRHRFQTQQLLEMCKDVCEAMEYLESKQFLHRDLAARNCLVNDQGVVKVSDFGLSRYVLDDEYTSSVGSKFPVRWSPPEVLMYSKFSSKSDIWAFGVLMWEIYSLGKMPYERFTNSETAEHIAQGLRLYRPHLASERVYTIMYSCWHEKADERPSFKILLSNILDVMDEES
Chain of LYN (P07948 whole entry, species assumed): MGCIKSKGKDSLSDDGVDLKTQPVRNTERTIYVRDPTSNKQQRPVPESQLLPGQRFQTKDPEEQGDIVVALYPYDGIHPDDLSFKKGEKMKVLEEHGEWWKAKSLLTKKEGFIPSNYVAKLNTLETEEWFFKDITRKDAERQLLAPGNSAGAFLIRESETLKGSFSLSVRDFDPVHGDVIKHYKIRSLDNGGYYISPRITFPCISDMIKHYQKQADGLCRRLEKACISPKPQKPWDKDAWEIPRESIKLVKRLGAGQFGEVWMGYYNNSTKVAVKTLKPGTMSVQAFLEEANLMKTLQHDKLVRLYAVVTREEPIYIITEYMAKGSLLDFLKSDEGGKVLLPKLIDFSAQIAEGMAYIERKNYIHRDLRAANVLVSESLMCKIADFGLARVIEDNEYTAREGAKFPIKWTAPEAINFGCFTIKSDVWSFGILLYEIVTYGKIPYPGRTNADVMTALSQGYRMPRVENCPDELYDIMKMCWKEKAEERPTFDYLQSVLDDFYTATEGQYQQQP

| SMILES | IC50 [2] [nM] | concentration sufficient to fully occupy the active site of Btk [3] [nM] | Btk occupancy in vivo ([4]; 10 mg/kg single oral dose) | also measured |
| --- | --- | --- | --- | --- |
| C=CC(=O)N1CC[C@@H](n2nc(-c3ccc(Oc4ccccc4)cc3)c3cnccc32)C1 [Example 1, (R)-1-(3-(3-(4-phenoxyphenyl)-1H-pyrazolo[4,3-c]pyridin-1-yl)pyrrolidin-1-yl)prop-2-en-1-one] | 10 to 100 | – | – | IC50 [1]: ≥ 10000 nM |
| C=CC(=O)N1CCC[C@@H](n2nc(-c3ccc(Oc4cccc(OC)c4Cl)cc3)c3cnccc32)C1 [Example 2, (R)-1-(3-(3-(4-(2-chloro-3-methoxyphenoxy)phenyl)-1H-pyrazolo[4,3-c]pyridin-1-yl)piperidin-1-yl)prop-2-en-1-one] | 10 to 100 | 100 | full occupancy | – |
| C=CC(=O)N1CC[C@@H](n2nc(-c3ccc(Oc4cccc(OC)c4F)cc3)c3cnccc32)C1 [Example 3, (R)-1-(3-(3-(4-(2-fluoro-3-methoxyphenoxy)phenyl)-1H-pyrazolo[4,3-c]pyridin-1-yl)pyrrolidin-1-yl)prop-2-en-1-one] | 10 to 100 | 50 | full occupancy | – |
| C=CC(=O)N1CC[C@@H](n2nc(-c3ccc(Oc4cccc(F)c4Cl)cc3)c3cnccc32)C1 [Example 4, (R)-1-(3-(3-(4-(2-chloro-3-fluorophenoxy)phenyl)-1H-pyrazolo[4,3-c]pyridin-1-yl)pyrrolidin-1-yl)prop-2-en-1-one] | 10 to 100 | 100 | full occupancy | – |
| C=CC(=O)N1CCC[C@@H](n2nc(-c3ccc(Oc4cccc(OC)c4F)cc3)c3cncc(OC)c32)C1 [Example 6, (R)-1-(3-(3-(4-(2-fluoro-3-methoxyphenoxy)phenyl)-7-methoxy-1H-pyrazolo[4,3-c]pyridin-1-yl)piperidin-1-yl)prop-2-en-1-one] | 10 to 100 | – | – | – |
| C=CC(=O)N1CCC[C@@H](n2nc(-c3ccc(Oc4cccc(OC)c4F)cc3)c3cnccc32)C1 [Example 71, (R)-1-(3-(3-(4-(2-fluoro-3-methoxyphenoxy)phenyl)-1H-pyrazolo[4,3-c]pyridin-1-yl)piperidin-1-yl)prop-2-en-1-one] | – | 100 | full occupancy | – |
| C=CC(=O)N1CCC[C@@H](n2nc(-c3ccc(Oc4cccc(OC)c4F)cc3)c3cncc(OCC)c32)C1 [Example 73, (R)-1-(3-(7-ethoxy-3-(4-(2-fluoro-3-methoxyphenoxy)phenyl)-1H-pyrazolo[4,3-c]pyridin-1-yl)piperidin-1-yl)prop-2-en-1-one] | – | 100 | – | Btk occupancy in vivo ([4]; 5 mg/kg single oral dose): full occupancy |
| COc1cccc(Oc2ccc(-c3nn([C@@H]4CCCN(C(=O)/C(C#N)=C/C(C)(C)C)C4)c4c(OC)cncc34)cc2)c1F [Example 90, (R,E)-2-(3-(3-(4-(2-fluoro-3-methoxyphenoxy)phenyl)-7-methoxy-1H-pyrazolo[4,3-c]pyridin-1-yl)piperidine-1-carbonyl)-4,4-dimethylpent-2-enenitrile] | – | – | – | IC50 [5]: 10 to 100 nM |
| C=CC(=O)N1CCCC1Cn1nc(-c2ccc(Oc3cccc(OC)c3F)cc2)c2cncc(OC)c21 (stereo not drawn) [Example 91, 1-(2-((3-(4-(2-fluoro-3-methoxyphenoxy)phenyl)-7-methoxy-1H-pyrazolo[4,3-c]pyridin-1-yl)methyl)pyrrolidin-1-yl)prop-2-en-1-one] | – | – | – | Btk occupancy in vivo ([4]; 5 mg/kg single oral dose): full occupancy |
